Data reported in ChEMBL document CHEMBL1133820, “Total synthesis and antifungal activity of 9-methoxystrobilurin L as the originally proposed 1,4-benzodioxan structure” (2001).
Calls of active or inactive are those of the source. The calls are words filed in the database; no cut-off is given here.

Assays:
Saccharomyces cerevisiae [1] = test: Antifungal activity against Saccharomyces cerevisiae determined as diameter of inhibition zone at a concentration of 10 ug/disk; assay type: functional
Aspergillus fumigatus [2] = test: Antifungal activity against Aspergillus fumigatus determined as diameter of inhibition zone at a concentration of 0.1 ug/disk; Slightly effective; assay type: functional, organism-based
Candida albicans [3] = test: Antifungal activity against Candida albicans determined as diameter of inhibition zone at a concentration of 10 ug/disk; assay type: functional
Candida albicans [4] = test: Antifungal activity against Candida albicans determined as diameter of inhibition zone at a concentration of 1 ug/disk; Slightly effective; assay type: functional, organism-based
Penicillium citrinum [5] = test: Antifungal activity against Penicillium citrium determined as diameter of inhibition zone at a concentration of 1 ug/disk; Not effective; assay type: functional, organism-based
Fusarium solani [6] = test: Antifungal activity against Fusarium solani determined as diameter of inhibition zone at a concentration of 0.1 ug/disk; Not effective; assay type: functional, organism-based
Saccharomyces cerevisiae [7] = test: Antifungal activity against Saccharomyces cerevisiae determined as diameter of inhibition zone at a concentration of 0.1 ug/disk; Not effective; assay type: functional, organism-based
Candida albicans [8] = test: Antifungal activity against Candida albicans determined as diameter of inhibition zone at a concentration of 0.1 ug/disk; Not effective; assay type: functional, organism-based
Fusarium solani [9] = test: Antifungal activity against Fusarium solani determined as diameter of inhibition zone at a concentration of 10 ug/disk; Not effective; assay type: functional, organism-based
Penicillium citrinum [10] = test: Antifungal activity against Penicillium citrium determined as diameter of inhibition zone at a concentration of 0.1 ug/disk; Not effective; assay type: functional, organism-based
Penicillium citrinum [11] = test: Antifungal activity against Penicillium citrium determined as diameter of inhibition zone at a concentration of 10 ug/disk; Not effective; assay type: functional, organism-based
Fusarium solani [12] = test: Antifungal activity against Fusarium solani determined as diameter of inhibition zone at a concentration of 1 ug/disk; Not effective; assay type: functional, organism-based
Aspergillus fumigatus [13] = test: Antifungal activity against Aspergillus fumigatus determined as diameter of inhibition zone at a concentration of 10 ug/disk; assay type: functional
Saccharomyces cerevisiae [14] = test: Antifungal activity against Saccharomyces cerevisiae determined as diameter of inhibition zone at a concentration of 1 ug/disk; Slightly effective; assay type: functional, organism-based
Aspergillus fumigatus [15] = test: Antifungal activity against Aspergillus fumigatus determined as diameter of inhibition zone at a concentration of 1 ug/disk; Slightly effective; assay type: functional, organism-based
Aspergillus fumigatus [16] = test: Antifungal activity against Aspergillus fumigatus determined as diameter of inhibition zone at a concentration of 10 ug/disk (expt 1); assay type: functional, organism-based
Saccharomyces cerevisiae [17] = test: Antifungal activity against Saccharomyces cerevisiae determined as diameter of inhibition zone at a concentration of 10 ug/disk (expt 2); assay type: functional, organism-based
Aspergillus fumigatus [18] = test: Antifungal activity against Aspergillus fumigatus determined as diameter of inhibition zone at a concentration of 10 ug/disk (expt 2); assay type: functional, organism-based
Candida albicans [19] = test: Antifungal activity against Candida albicans determined as diameter of inhibition zone at a concentration of 10 ug/disk (expt 2); assay type: functional, organism-based
Candida albicans [20] = test: Antifungal activity against Candida albicans determined as diameter of inhibition zone at a concentration of 10 ug/disk (expt 1); assay type: functional, organism-based
Saccharomyces cerevisiae [21] = test: Antifungal activity against Saccharomyces cerevisiae determined as diameter of inhibition zone at a concentration of 10 ug/disk (expt 1); assay type: functional, organism-based
Penicillium citrinum [22] = test: Antifungal activity against Penicillium citrium determined as diameter of inhibition zone at a concentration of 10 ug/disk (expt 1); assay type: functional, organism-based
Penicillium citrinum [23] = test: Antifungal activity against Penicillium citrium determined as diameter of inhibition zone at a concentration of 10 ug/disk (expt 2); Not effective; assay type: functional, organism-based
Saccharomyces cerevisiae [24] = test: Antifungal activity against Saccharomyces cerevisiae determined as diameter of inhibition zone at a concentration of 1 ug/disk; Not effective; assay type: functional, organism-based
Candida albicans [25] = test: Antifungal activity against Candida albicans determined as diameter of inhibition zone at a concentration of 1 ug/disk; Not effective; assay type: functional, organism-based
Saccharomyces cerevisiae [26] = test: Antifungal activity against Saccharomyces cerevisiae determined as diameter of inhibition zone at a concentration of 0.1 ug/disk; Slightly effective; assay type: functional, organism-based

Q: For `C=CC(C)(C)OC(C)(C)[C@H]1COc2ccc(/C=C/C(OC)=C(C)\C(=C/OC)C(=O)OC)cc2O1`, which Diameter of inhibition zone (Saccharomyces cerevisiae [1]) is on record?
A: The Diameter of inhibition zone was 8 mm.

Q: And the “Diameter of inhibition zone” value (Aspergillus fumigatus [2])?
A: Its value is “Slightly effective”.

Q: And the Diameter of inhibition zone (Candida albicans [3])?
A: Its Diameter of inhibition zone is 8 mm.

Q: And the “Diameter of inhibition zone” value (Candida albicans [4])?
A: The value was “Slightly effective”.

Q: And the “Diameter of inhibition zone” value (Penicillium citrinum [5])?
A: The value was “inactive”.

Q: And the “Diameter of inhibition zone” value (Fusarium solani [6])?
A: Its value is “inactive”.

Q: And the “Diameter of inhibition zone” value (Saccharomyces cerevisiae [7])?
A: Its value is “inactive”.

Q: What about the “Diameter of inhibition zone” value (Candida albicans [8]) of the same compound?
A: Its value is “inactive”.

Q: And the “Diameter of inhibition zone” value (Fusarium solani [9])?
A: The value was “inactive”.

Q: And the “Diameter of inhibition zone” value (Penicillium citrinum [10])?
A: Its value is “inactive”.

Q: What about the “Diameter of inhibition zone” value (Penicillium citrinum [11]) of the same compound?
A: Its value is “inactive”.

Q: What about the “Diameter of inhibition zone” value (Fusarium solani [12]) of the same compound?
A: The value was “inactive”.

Q: What about the Diameter of inhibition zone (Aspergillus fumigatus [13]) of the same compound?
A: Its Diameter of inhibition zone is 8 mm.

Q: And the “Diameter of inhibition zone” value (Saccharomyces cerevisiae [14])?
A: The value was “Slightly effective”.

Q: What about the “Diameter of inhibition zone” value (Aspergillus fumigatus [15]) of the same compound?
A: The value was “Slightly effective”.

Q: For NYSTATIN, which Diameter of inhibition zone (Aspergillus fumigatus [16]) is on record?
A: The Diameter of inhibition zone was 12 mm.

Q: And the Diameter of inhibition zone (Saccharomyces cerevisiae [17])?
A: The Diameter of inhibition zone was 8 mm.

Q: And the Diameter of inhibition zone (Aspergillus fumigatus [18])?
A: The Diameter of inhibition zone was 8 mm.

Q: And the Diameter of inhibition zone (Candida albicans [19])?
A: Its Diameter of inhibition zone is 10 mm.

Q: And the Diameter of inhibition zone (Candida albicans [20])?
A: The Diameter of inhibition zone was 16 mm.

Q: And the Diameter of inhibition zone (Saccharomyces cerevisiae [21])?
A: The Diameter of inhibition zone was 17 mm.

Q: And the Diameter of inhibition zone (Penicillium citrinum [22])?
A: Its Diameter of inhibition zone is 10 mm.

Q: And the “Diameter of inhibition zone” value (Penicillium citrinum [23])?
A: Its value is “inactive”.

Q: With `C=CC(C)(C)OC(C)(C)[C@@H]1COc2ccc(/C=C/C(OC)=C(C)\C(=C/OC)C(=O)OC)cc2O1` as the compound, how does the “Diameter of inhibition zone” value (Saccharomyces cerevisiae [24]) read?
A: The value was “inactive”.

Q: What about the “Diameter of inhibition zone” value (Candida albicans [25]) of the same compound?
A: Its value is “inactive”.

Q: And the “Diameter of inhibition zone” value (Aspergillus fumigatus [2])?
A: Its value is “Slightly effective”.

Q: And the “Diameter of inhibition zone” value (Penicillium citrinum [5])?
A: Its value is “inactive”.

Q: And the “Diameter of inhibition zone” value (Fusarium solani [6])?
A: The value was “inactive”.

Q: And the “Diameter of inhibition zone” value (Saccharomyces cerevisiae [7])?
A: Its value is “inactive”.

Q: What about the “Diameter of inhibition zone” value (Candida albicans [8]) of the same compound?
A: Its value is “inactive”.

Q: And the “Diameter of inhibition zone” value (Penicillium citrinum [10])?
A: Its value is “inactive”.

Q: And the “Diameter of inhibition zone” value (Penicillium citrinum [11])?
A: The value was “inactive”.

Q: What about the “Diameter of inhibition zone” value (Fusarium solani [12]) of the same compound?
A: The value was “inactive”.

Q: Which “Diameter of inhibition zone” value (Aspergillus fumigatus [2]) does the source give for `C=CC(C)(C)O[C@H]1COc2ccc(/C=C/C(OC)=C(C)\C(=C\OC)C(=O)OC)cc2OC1(C)C` here?
A: The value was “Slightly effective”.

Q: And the “Diameter of inhibition zone” value (Saccharomyces cerevisiae [26])?
A: Its value is “Slightly effective”.

Q: And the “Diameter of inhibition zone” value (Penicillium citrinum [5])?
A: Its value is “inactive”.

Q: And the “Diameter of inhibition zone” value (Fusarium solani [6])?
A: Its value is “inactive”.

Q: What about the “Diameter of inhibition zone” value (Candida albicans [8]) of the same compound?
A: Its value is “inactive”.

Q: What about the “Diameter of inhibition zone” value (Penicillium citrinum [10]) of the same compound?
A: Its value is “inactive”.
